# Values of other authors in patent publication US9259405B2, “Method of treating functional somatic syndromes with combination of famciclovir and diclofenac” (INNOVATIVE MED CONCEPTS, LLC, priority 2012, dated 2016).
# System: fibromyalgia patients
# Settings: J. Rheumatology (2004) 31, 783-784
smiles,measurement,value
CC(C)[C@H](N)C(=O)OCCOCn1cnc2c(=O)[nH]c(N)nc21 [valacyclovir],treatment of fibromyalgia patients,not successful
